Experiments:
Format in all cases: in vitro ADME
[1] = Liver microsomal stability in vitro, rat; conditions: pH 7.4; rat liver microsomes 0.5 mg protein/mL, 1 μM test compound, 37° C.; read-out: Rat T1/2
Method: (§1) Evaluation of in vitro liver microsomal stability of the compound of the present disclosure was tested by the following method:
(§2) Buffer: 100 mM potassium phosphate buffer, pH 7.4; […] MgCl2.
(§3) Liver microsomes: human liver microsomes, Corning Cat No. 452117; Rat liver microsomes, Xenotech Cat No. R1000; Mouse liver microsomes, Xenotech Cat No. M1000; Dog liver microsomes, Xenotech Cat No. D1000; Liver microsomes of cynomolgus monkey, Corning Cat No. 452413, the final concentration was 0.5 mg protein/mL.
(§4) 1. Intermediate solution: 5 μL of compound or control in stock solution (10 mM) was diluted with 495 μL of methanol (concentration: 100 μM, 99% MeOH).
(§5) 2. Operating solution: the intermediate solution was diluted […] with 450 μL 100 mM potassium phosphate buffer (concentration: 10 μM, 9.9% MeOH).
(§6) 1. 10 μL of compound or control solution per well was added to all plates (T0, T5, T10, T20, T30, T60, NCF60) except matrix blank.
(§7) 2. Microsome solution was distributed to 96-well plates according to platemap for standby, 680 μL per well, and the mixture of microsome solution and the compound was incubated at 37° C. for about 10 minutes.
4. […]
(§8) 10. Data analysis: The peak area of the corresponding compound and internal standard was detected by LC-MS/MS, and the T1/2 of the compound was calculated by the following formula: […]

[2] = Liver microsomal stability in vitro, mouse; conditions: pH 7.4; mouse liver microsomes 0.5 mg protein/mL, 1 μM test compound, 37° C.; read-out: Mouse T1/2
Method: as §1, §2, §3, §4, §5, §6, §7
4. […]
as §8

[3] = Liver microsomal stability in vitro, cynomolgus monkey; conditions: for half-life at 1 μM: pH 7.4, cynomolgus monkey liver microsomes 0.5 mg protein/mL, 1 μM test compound, 37° C., read-out: Cynomolgus monkey T1/2
Method: as §1, §2, §3, §4, §5, §6, §7
4. After preheating, NADPH regeneration system was distributed to 96-well plate, 90 μL per well, for standby according to plate map, which was added to each plate to start the reaction, 10 μL per well. The final concentration of each component in the incubation medium includes: 0.5 mg protein/mL microsome, 1 μM test compound, […], 0.99% methanol and 0.01% DMSO.
6. The above-prepared stop solution (4° C. cooling) was added to stop the reaction, 300 μL per well.
9. During centrifugation, eight new 96-well plates were loaded with 300 μL of HPLC water, and then 100 μL of supernatant was transferred for mixing, followed by LC/MS/MS detection.
as §8

[4] = molecular target: T1, CYP1A2 (Homo sapiens, UniProt P05177); experiment: Inhibition of human liver microsomal CYP450 enzymes, CYP1A2; conditions: human liver microsomes, substrate Phenacetin 30 μM; Reference = α-naphthoflavone; read-out: IC50 1A2
T1 construct: from tissue; host or cells: human liver microsomes (HLM)
T1 sequence (P05177 1-516): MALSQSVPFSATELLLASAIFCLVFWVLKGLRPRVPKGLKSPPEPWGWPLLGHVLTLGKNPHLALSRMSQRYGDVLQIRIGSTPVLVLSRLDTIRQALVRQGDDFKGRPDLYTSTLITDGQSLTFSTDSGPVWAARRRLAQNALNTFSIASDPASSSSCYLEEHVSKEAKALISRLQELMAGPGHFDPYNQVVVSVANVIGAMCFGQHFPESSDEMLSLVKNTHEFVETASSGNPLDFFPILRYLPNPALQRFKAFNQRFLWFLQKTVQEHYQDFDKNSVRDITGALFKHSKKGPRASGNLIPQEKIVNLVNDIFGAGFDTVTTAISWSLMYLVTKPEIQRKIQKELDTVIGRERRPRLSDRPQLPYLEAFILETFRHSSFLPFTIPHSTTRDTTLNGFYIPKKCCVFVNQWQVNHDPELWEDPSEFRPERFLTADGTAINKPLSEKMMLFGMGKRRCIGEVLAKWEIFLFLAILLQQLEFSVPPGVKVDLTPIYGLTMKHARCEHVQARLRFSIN
Method: (§9) The inhibitory effects of the compound of the present disclosure on the CYP450 enzymes of six human subtypes were determined by the following experimental method:
(§10) Reference compounds of each subtype: CYP1A2: α-naphthoflavone; CYP2C9: sulfaphenazole; CYP2C19: omeprazole; CYP3A4: ketoconazole; CYP2D6: quinidine.
(§11) Substrate concentration: CYP1A2: Phenacetin at 30 μM; CYP2C9: Diclofenac at 10 μM; CYP2C19: S-Mephenytoin at 35 μM; CYP3A4: Midazolam at 5 μM and Testosterone at 80 μM; CYP2D6: Bufuralol at 10 μM.
(§12) 6. 0.2 mg/mL of HLM was added to the test wells, 400 μL per well, and then the gradient diluted 400× test compound was added to the corresponding wells.
(§13) 7. 0.2 mg/mL of HLM was added to the test wells, 200 μL per well, and then the gradient-diluted reference inhibitor was added to the corresponding wells. Steps 6 and 7 needed to be performed on ice.
(§14) 8.1. 30 μL of test compound and reference compound were mixed in 0.2 mg/mL of HLM solution (see steps 6 and 7).
(§15) 8.2. 15 μL of 4× substrate solution (see step 4) was added.
(§16) 10. Preheated 8 mM of NADPH solution was added to the 96-well test plate (see step 3) to initiate the reaction, 15 μL per well.
(§17) 11. The test plate was incubated at 37° C.: 3A4 for 5 minutes, each of 1A2, 2C9 and 2D6 for 10 minutes, and 2C19 for 45 minutes.
(§18) 12. ACN containing internal reference was added to stop the reaction, 120 μL per well.
14. […]

[5] = molecular target: T2, CYP2C9 (Homo sapiens, UniProt P11712); experiment: Inhibition of human liver microsomal CYP450 enzymes, CYP2C9; conditions: human liver microsomes, substrate Diclofenac 10 μM; Reference = sulfaphenazole; read-out: IC50 2C9
T2 construct: from tissue; host or cells: human liver microsomes (HLM)
T2 sequence (P11712 whole entry): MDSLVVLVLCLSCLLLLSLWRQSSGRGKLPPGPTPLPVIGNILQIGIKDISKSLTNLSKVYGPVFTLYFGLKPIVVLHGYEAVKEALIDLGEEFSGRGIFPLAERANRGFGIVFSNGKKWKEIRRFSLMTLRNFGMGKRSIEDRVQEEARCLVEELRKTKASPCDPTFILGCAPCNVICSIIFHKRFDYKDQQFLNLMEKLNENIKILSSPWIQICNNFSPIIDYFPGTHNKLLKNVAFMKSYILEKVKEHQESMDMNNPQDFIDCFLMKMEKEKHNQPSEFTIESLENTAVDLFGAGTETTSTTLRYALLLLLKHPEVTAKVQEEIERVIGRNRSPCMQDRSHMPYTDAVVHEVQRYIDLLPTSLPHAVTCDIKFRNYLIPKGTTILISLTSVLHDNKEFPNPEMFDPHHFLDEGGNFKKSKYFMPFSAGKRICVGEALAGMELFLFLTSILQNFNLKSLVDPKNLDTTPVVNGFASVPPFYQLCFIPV
Method: as §9, §10, §11, §12, §13, §14, §15, §16, §17, §18
14. […]

[6] = molecular target: T3, CYP2C19 (Homo sapiens, UniProt P33261); experiment: Inhibition of human liver microsomal CYP450 enzymes, CYP2C19; conditions: human liver microsomes, substrate S-Mephenytoin 35 μM; Reference = omeprazole; read-out: IC50 2C19
T3 construct: from tissue; host or cells: human liver microsomes (HLM)
T3 sequence (P33261 whole entry): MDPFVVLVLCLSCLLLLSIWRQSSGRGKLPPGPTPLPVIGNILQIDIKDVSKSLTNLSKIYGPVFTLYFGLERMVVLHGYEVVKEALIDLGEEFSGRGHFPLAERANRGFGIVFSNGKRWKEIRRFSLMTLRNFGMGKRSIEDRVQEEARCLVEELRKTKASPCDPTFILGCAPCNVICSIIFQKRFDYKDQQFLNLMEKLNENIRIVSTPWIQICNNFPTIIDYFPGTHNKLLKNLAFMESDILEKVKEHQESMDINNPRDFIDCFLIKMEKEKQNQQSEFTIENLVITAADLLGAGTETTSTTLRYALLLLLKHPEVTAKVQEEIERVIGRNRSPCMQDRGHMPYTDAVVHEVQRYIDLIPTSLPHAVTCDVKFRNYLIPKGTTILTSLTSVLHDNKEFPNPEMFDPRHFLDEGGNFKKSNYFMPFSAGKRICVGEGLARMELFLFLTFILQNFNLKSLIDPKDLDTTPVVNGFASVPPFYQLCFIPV
Method: as §9, §10, §11, §12, §13, §14, §15, §16, §17, §18
14. […]

## NC(=O)c1cccc2cn(-c3ccc([C@]4(F)CCCNC4)cc3)nc12 (single isomer, unassigned) [Example 23, (R or S)-2-(4-(3-fluoropiperidin-3-yl)phenyl)-2H-indazole-7-carboxamide]
[1]
  half-life at 1 μM: 1.07 h
[2]
  half-life at 1 μM: 1.02 h
[3]; cynomolgus monkey liver microsomes
  metabolic stability in cynomolgus monkey liver microsomes, in words: excellent metabolic stability
[3]
  half-life at 1 μM: 1.03 h
[4]
  IC50: > 10 µM
[5]
  IC50: > 10 µM
[6]
  IC50: > 10 µM

## NC(=O)c1cccc2cn(-c3ccc([C@@H]4CCCNC4)cc3)nc12 [Niraparib, reference compound]
[1]
  half-life at 1 μM: 1.76 h
[2]
  half-life at 1 μM: 1.83 h
[3]
  half-life at 1 μM: 0.967 h
[4]
  IC50: > 10 µM
[5]
  IC50: > 10 µM
[6]
  IC50: > 10 µM

Source: US11072596B2, “Poly(ADP-ribose) polymerase inhibitor, preparation method and use” (SELECTION BIOSCIENCE LLC, priority 2017, dated 2021)
